This is an account of results in patent publication US11739098B2 (BRISTOL-MYERS SQUIBB COMPANY, priority 2017, dated 2023).

Holding throughout (format): cell-based
One experiment deals with T1, human TLR9 (Homo sapiens, UniProt Q9NR96).
T1 construct: host or cells: HEK-Blue cells (HEK293-derived reporter line)
T1 sequence (Q9NR96 26-1032): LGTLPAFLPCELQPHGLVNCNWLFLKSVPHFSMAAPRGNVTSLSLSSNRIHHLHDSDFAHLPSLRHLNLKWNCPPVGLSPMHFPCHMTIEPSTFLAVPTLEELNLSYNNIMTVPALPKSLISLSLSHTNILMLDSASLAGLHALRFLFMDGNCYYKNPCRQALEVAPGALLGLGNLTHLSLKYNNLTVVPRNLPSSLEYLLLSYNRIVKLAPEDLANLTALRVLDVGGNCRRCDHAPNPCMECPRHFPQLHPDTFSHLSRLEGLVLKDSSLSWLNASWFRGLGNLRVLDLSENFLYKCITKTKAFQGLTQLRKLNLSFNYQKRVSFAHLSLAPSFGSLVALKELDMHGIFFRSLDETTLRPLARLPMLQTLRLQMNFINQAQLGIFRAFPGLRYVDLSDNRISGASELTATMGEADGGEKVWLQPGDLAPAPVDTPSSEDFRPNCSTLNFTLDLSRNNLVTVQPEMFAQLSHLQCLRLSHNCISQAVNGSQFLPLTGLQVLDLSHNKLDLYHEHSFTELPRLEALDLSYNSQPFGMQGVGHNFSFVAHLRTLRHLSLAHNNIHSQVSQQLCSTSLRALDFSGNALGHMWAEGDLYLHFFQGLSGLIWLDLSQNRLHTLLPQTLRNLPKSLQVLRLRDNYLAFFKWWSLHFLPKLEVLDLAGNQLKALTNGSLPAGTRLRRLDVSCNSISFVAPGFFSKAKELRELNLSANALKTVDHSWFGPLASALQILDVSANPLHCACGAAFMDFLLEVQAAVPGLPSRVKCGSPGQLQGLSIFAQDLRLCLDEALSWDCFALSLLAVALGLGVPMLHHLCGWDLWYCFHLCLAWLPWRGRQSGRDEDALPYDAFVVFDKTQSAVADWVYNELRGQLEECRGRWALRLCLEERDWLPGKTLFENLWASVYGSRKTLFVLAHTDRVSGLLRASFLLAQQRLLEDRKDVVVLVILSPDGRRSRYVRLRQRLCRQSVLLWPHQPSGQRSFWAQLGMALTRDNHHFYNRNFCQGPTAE
The experiment can be described thus: TLR9 inhibition reporter assay (HEK-Blue cells, SEAP reporter, ODN2006 stimulation). To be noted: HEK-Blue cells overexpressing human TLR9, SEAP reporter, ODN2006 5 nM. In short, it runs like this:
(§1)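 Cells seeded per well (15000 TLR7, 20,000 TLR8, 25,000 TLR9); compound added over 0.05 nM–50 μM for 30 min at room temperature; agonist added (TLR7 gardiquimod 7.5 μM, TLR8 R848 15.9 μM, TLR9 ODN2006 5 nM); 22 h at 37 °C; SEAP measured; percent inhibition calculated.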
In general terms: In a reporter assay the amount or activity of a reporter protein is the signal.

Another experiment deals with T2, human TLR7 (Homo sapiens, UniProt Q9NYK1).
T2 construct: host or cells: HEK-Blue cells (HEK293-derived reporter line)
T2 sequence (Q9NYK1 27-1049): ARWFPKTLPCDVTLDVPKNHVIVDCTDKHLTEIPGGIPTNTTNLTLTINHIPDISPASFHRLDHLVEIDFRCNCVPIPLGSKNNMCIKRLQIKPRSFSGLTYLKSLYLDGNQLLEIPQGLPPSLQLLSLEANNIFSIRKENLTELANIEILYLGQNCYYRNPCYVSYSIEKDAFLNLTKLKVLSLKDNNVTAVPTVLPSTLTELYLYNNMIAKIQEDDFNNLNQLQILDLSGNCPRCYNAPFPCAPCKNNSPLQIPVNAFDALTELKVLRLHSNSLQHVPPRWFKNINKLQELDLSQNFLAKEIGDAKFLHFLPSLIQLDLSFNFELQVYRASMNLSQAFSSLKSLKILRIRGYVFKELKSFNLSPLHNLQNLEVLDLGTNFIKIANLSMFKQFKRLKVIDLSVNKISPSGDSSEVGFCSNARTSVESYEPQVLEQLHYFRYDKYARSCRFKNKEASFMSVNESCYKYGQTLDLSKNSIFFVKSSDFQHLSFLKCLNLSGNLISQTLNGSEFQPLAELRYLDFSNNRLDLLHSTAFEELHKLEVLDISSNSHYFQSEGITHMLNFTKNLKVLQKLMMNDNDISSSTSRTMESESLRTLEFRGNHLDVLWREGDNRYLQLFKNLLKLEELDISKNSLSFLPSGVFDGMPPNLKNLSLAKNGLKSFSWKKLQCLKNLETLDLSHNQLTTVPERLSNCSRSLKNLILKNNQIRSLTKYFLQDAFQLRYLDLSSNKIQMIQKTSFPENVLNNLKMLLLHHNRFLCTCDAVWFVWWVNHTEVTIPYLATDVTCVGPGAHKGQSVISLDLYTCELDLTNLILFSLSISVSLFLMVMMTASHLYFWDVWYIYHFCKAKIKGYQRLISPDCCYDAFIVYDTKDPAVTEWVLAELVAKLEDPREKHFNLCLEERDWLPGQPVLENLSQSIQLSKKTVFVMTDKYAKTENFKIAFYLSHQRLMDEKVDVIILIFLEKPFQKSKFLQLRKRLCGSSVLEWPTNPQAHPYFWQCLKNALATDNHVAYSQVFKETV
The experiment can be described thus: TLR7 inhibition reporter assay (HEK-Blue cells, SEAP reporter, gardiquimod stimulation). To be noted: HEK-Blue cells overexpressing human TLR7, SEAP reporter, gardiquimod 7.5 μM. In outline:
as §1

In the next experiment the target is T3, human TLR8 (Homo sapiens, UniProt Q9NR97).
T3 construct: host or cells: HEK-Blue cells (HEK293-derived reporter line)
T3 sequence (Q9NR97 27-1041): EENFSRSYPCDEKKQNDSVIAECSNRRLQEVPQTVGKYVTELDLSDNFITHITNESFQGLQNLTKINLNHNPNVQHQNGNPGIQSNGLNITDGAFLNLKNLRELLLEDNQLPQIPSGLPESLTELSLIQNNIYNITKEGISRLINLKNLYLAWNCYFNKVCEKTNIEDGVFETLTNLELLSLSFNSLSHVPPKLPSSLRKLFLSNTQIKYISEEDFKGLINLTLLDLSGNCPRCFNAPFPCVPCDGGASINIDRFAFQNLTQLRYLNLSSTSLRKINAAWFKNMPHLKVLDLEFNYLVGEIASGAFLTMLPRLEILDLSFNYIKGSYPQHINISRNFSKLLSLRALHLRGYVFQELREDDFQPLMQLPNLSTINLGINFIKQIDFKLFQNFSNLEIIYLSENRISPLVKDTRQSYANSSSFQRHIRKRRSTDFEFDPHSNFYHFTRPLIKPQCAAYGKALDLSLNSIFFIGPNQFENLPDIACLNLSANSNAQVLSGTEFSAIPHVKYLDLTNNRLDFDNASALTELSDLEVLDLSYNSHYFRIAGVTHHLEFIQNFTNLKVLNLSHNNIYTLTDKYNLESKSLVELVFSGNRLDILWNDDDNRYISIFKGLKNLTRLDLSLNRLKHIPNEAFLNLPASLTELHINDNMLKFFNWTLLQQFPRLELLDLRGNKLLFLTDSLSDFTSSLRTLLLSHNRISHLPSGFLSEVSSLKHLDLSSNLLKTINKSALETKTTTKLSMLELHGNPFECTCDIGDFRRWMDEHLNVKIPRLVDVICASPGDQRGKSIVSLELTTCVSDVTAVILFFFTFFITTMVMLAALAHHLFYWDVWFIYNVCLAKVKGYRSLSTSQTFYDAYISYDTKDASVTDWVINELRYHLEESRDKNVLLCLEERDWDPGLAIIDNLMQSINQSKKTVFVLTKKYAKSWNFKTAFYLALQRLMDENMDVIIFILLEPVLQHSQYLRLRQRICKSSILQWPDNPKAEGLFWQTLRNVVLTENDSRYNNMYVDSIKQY
Briefly: TLR8 inhibition reporter assay (HEK-Blue cells, SEAP reporter, R848 stimulation). The note with it: HEK-Blue cells overexpressing human TLR8, SEAP reporter, R848 15.9 μM. In short, it runs like this:
as §1

As usually defined, the IC50 is the midpoint of a concentration-inhibition curve. A lower IC50 goes with greater potency in that assay. Consider `Cc1cc(-c2[nH]c3ccc(C4CCN(CC(C)(C)O)CC4)cc3c2C(C)C)cn2ccnc12` [Example 774, 1-(4-(3-isopropyl-2-(8-methylimidazo[1,2-a]pyridin-6-yl)-1H-indol-5-yl)piperidin-1-yl)-2-methylpropan-2-ol], for which the results for the IC50 at human TLR9, on human TLR7 and against human TLR8 were 100 to 1000 nM, less than 100 nM and less than 100 nM, respectively.

As for `COc1cc(-c2[nH]c3ccc(C4CCN(CC(C)(C)O)CC4)cc3c2C(C)C)cn2ccnc12` [Example 775, 1-(4-(3-isopropyl-2-(8-methoxyimidazo[1,2-a]pyridin-6-yl)-1H-indol-5-yl)piperidin-1-yl)-2-methylpropan-2-ol], the half-maximal inhibitory concentration (IC50) at human TLR9 is 100 to 1000 nM; on human TLR7, less than 100 nM; at human TLR8 it was less than 100 nM.

Take `CCc1c(C)c(-c2[nH]c3ccc(C4CCN(CC(C)(C)O)CC4)cc3c2C(C)C)cn2ccnc12` [Example 777, 1-(4-(2-(8-ethyl-7-methylimidazo[1,2-a]pyridin-6-yl)-3-isopropyl-1H-indol-5-yl)piperidin-1-yl)-2-methylpropan-2-ol]: the IC50 at human TLR9 was 100 to 1000 nM; at human TLR7 it was less than 100 nM; against human TLR8, less than 100 nM.

Regarding `COCCN1CCC(c2ccc3[nH]c(-c4ccc(C#N)c5ncccc45)c(C(C)C)c3c2)CC1` [Example 778, 5-(3-isopropyl-5-(1-(2-methoxyethyl)piperidin-4-yl)-1H-indol-2-yl)quinoline-8-carbonitrile], the figures for the IC50 at human TLR9, at human TLR7 and at human TLR8 were 1000 to 50000 nM, less than 100 nM and less than 100 nM, respectively.

Consider `COCCN1CCC(c2ccc3[nH]c(-c4cc(C)n5ncnc5c4)c(C(C)C)c3c2)CC1` [Example 779, 7-(3-isopropyl-5-(1-(2-methoxyethyl)piperidin-4-yl)-1H-indol-2-yl)-5-methyl-[1,2,4]triazolo[1,5-a]pyridine], for which the IC50 against human TLR9 is 1000 to 50000 nM; on human TLR7, less than 100 nM; on human TLR8 it was less than 100 nM.

With `COCCN1CCC(c2ccc3[nH]c(-c4cc(OC)n5ncnc5c4)c(C(C)C)c3c2)CC1` [Example 780, 7-(3-isopropyl-5-(1-(2-methoxyethyl)piperidin-4-yl)-1H-indol-2-yl)-5-methoxy-[1,2,4]triazolo[1,5-a]pyridine], the IC50 against human TLR9 is 1000 to 50000 nM; at human TLR7 it was less than 100 nM; at human TLR8, less than 100 nM.

In the case of `CC(C)c1c(-c2cc(CO)c3nnnn3c2)[nH]c2ccc(C3CCN(CC4(C)COC4)CC3)cc12` [Example 781, (6-(3-isopropyl-5-(1-((3-methyloxetan-3-yl)methyl)piperidin-4-yl)-1H-indol-2-yl)tetrazolo[1,5-a]pyridin-8-yl)methanol], the IC50 on human TLR9 was 1000 to 50000 nM; against human TLR7 it was less than 100 nM; on human TLR8, less than 100 nM.

`COc1cc(-c2[nH]c3ccc(C4CCN(CCS(C)(=O)=O)CC4)cc3c2C(C)C)nn2ncnc12` [Example 782, 6-(3-isopropyl-5-(1-(2-(methylsulfonyl)ethyl)piperidin-4-yl)-1H-indol-2-yl)-8-methoxy-[1,2,4]triazolo[1,5-b]pyridazine]: the figures for the IC50 on human TLR9, against human TLR7 and on human TLR8 were 1000 to 50000 nM, less than 100 nM and less than 100 nM, respectively.

Consider `CC(C)c1c(-c2cn(C)c3ncccc23)[nH]c2ccc(C3CCN(CCS(N)(=O)=O)CC3)cc12` [Example 783, 2-(4-(3-isopropyl-2-(1-methyl-1H-pyrrolo[2,3-b]pyridin-3-yl)-1H-indol-5-yl)piperidin-1-yl)ethane-1-sulfonamide], for which the IC50 is 1000 to 50000 nM at human TLR9, less than 100 nM against human TLR7 and less than 100 nM against human TLR8.

In the case of `CC(C)c1c(-c2cn(C)c3ncccc23)[nH]c2ccc(C3CCN(C4CCS(=O)(=O)CC4)CC3)cc12` [Example 784, 4-(4-(3-isopropyl-2-(1-methyl-1H-pyrrolo[2,3-b]pyridin-3-yl)-1H-indol-5-yl)piperidin-1-yl)tetrahydro-2H-thiopyran 1,1-dioxide], the IC50 was 1000 to 50000 nM against human TLR9, less than 100 nM against human TLR7 and less than 100 nM at human TLR8.

Consider `Cc1cc(-c2[nH]c3ccc(C4CCN(CCS(C)(=O)=O)CC4)cc3c2C(C)C)cn2nncc12` [Example 785, 6-(3-isopropyl-5-(1-(2-(methylsulfonyl)ethyl)piperidin-4-yl)-1H-indol-2-yl)-4-methyl-[1,2,3]triazolo[1,5-a]pyridine], for which the figures for the IC50 against human TLR9, against human TLR7 and against human TLR8 were 1000 to 50000 nM, 1000 to 50000 nM and 100 to 1000 nM, respectively.

`Cc1c(-c2[nH]c3ccc(C4CCN(CCS(C)(=O)=O)CC4)cc3c2C(C)C)cn2nnnc2c1C` [Example 786, 6-(3-isopropyl-5-(1-(2-(methylsulfonyl)ethyl)piperidin-4-yl)-1H-indol-2-yl)-7,8-dimethyltetrazolo[1,5-a]pyridine]: the IC50 is 1000 to 50000 nM against human TLR9, less than 100 nM at human TLR7 and less than 100 nM on human TLR8.
